Key:
Aβ antigen [1] = assay: IgG isotyping (IgG1, IgG2a, IgG2b titer) in vaccinated mice; format: in vivo, Balb/c mice; conditions: blood collected at 4th week after the second vaccination
Method: (§1) The mice were inoculated with the vaccines prepared as described above. 6-week-old Balb/c mice were used in the experiment, and there were 4 mice per group. The mice were injected intramuscularly with the vaccines prepared containing PBS, Alum, S1P (EB101), P1P, cyclic P1P, and NAPS-1-P as described above. […] The vaccine candidates were inoculated twice at an interval of 3 weeks. PBS was used as a negative control without Aβ antigen, and S1P and Alum were used as control. Alum is an adjuvant used in vaccines and is known to induce a Th2 immune response, and thus was used as a positive control for the Th2 response, and S1P was used as a control for comparison of antibody producing-ability.
In the fourth week, which was the last week, about 300 to 400 μl of blood was collected from the heart, and the serum components were separated by centrifugation at 1400 rpm for 10 minutes at room temperature. The antibody-forming ability in the serum was determined as follows:
The IgG isotyping was measured in the same manner as the total IgG measurement except that the following antibodies were used as secondary antibodies. For IgG1, IgG2a and IgG2b, anti-mouse IgG1, IgG2a or IgG2b conjugated to horseradish peroxidase (Boehringer Mannheim) were used.

IL-4 = assay: Th2 cytokine (IL-4) from splenocytes of inoculated mice re-stimulated with Aβ antigen; format: in vivo; conditions: for IL-4: splenocytes of vaccinated mice, re-stimulated with Aβ antigen 72 hours
Method: as §1
(§2) The spleen was removed from the mice inoculated as described above to obtain splenocytes. Red blood cells were lysed with 100 mM Tris buffer. The obtained splenocytes were washed twice with PBS and centrifuged at 1600 rpm for 5 minutes. […] The splenocytes thus obtained were re-stimulated with a constant amount of Aβ antigen for 72 hours.
(§3) Subsequently, Th1 cytokine (TNF-α) and Th2 cytokine (IL-4) secreted from the mouse splenocytes were subjected to an ELISpot assay using an ELISPOT (BD Pharmingen) kit according to the manufacturer's instructions. The number of colored spots was measured to compare the number of cytokine-secreting cells.

TNF-α = assay: Th1 cytokine (TNF-α) from splenocytes of inoculated mice re-stimulated with Aβ antigen; format: in vivo; conditions: for TNF-α: splenocytes of vaccinated mice, re-stimulated with Aβ antigen 72 hours
Method: as §1, §2, §3

Raw264.7 cells = assay: TNF-α production in LPS-stimulated macrophages (ELISA); format: cell-based, mouse; conditions: LPS 1 ng/mL; for Amount of TNF-α / inhibition at 0.01 µM / inhibition at 0.1 µM / inhibition at 0.5 µM / inhibition at 1 µM: 4 hours; for inhibition at 0.01 µM / inhibition at 0.1 µM / inhibition at 0.5 µM / inhibition at 1 µM: Mus musculus, RAW264.7, 4 h, read-out: Inhibition rate of TNF-α production
Method: Raw264.7 cells, which is a mouse macrophage cell line (Korean Cell Line Bank, cultured with RPMI 1640/10% fetal bovine serum) were seeded at 4.5×10^5/mL and cultured overnight, and then, treated with LPS (lipopolysaccharide) (1 ng/mL), and S1P and P1P diluted with a culture medium according to the concentrations ([…]). After culturing at 37° C. in a 5% CO2 incubator for 4 hours, the supernatant was collected and stored at 4° C. The concentration of TNF-α, an inflammatory cytokine secreted in the supernatant, was measured using an ELISA kit (BD OptEIA™ TNF Mouse set) according to the manufacturer's instructions. The culture medium was diluted by ¼ in all experimental groups except for the treated group, and the concentration was measured.

Aβ antigen [2] = assay: Antibody-forming ability in vaccinated mice, total IgG titer (ELISA); format: in vivo, Balb/c mice; conditions: vaccine with Aβ antigen, intramuscular
Method: as §1
The antibody-forming ability in the serum was determined as follows:
A 96-well plate was coated with Aβ antigen (1 μg/mL) and reacted at room temperature overnight. Then, the solution in each well was removed and blocked with albumin. The primary antibody (the immune serum) was subjected to 2-fold dilution with the following composition solution (0.014 M sodium phosphate, pH 7.4, 0.15 M NaCl, 0.6% albumin, 0.05% thimerosal) and added to each well. After reacting at room temperature for about 1 hour, the antibodies were washed 5 times with PBS containing 0.05% Tween 20. Subsequently, a secondary antibody conjugated to horseradish peroxidase (goat mouse IgG conjugated to horseradish peroxidase, Boehringer Mannheim) was added and reacted at room temperature for 1 hour. After washing 5 times with PBS containing Tween, 100 μL of 3,3,5,5-tetramethyl benzidine (from Pierce Chemicals) was added for color development, and reacted at room temperature for 15 minutes. The color development reaction was terminated by adding sulfuric acid.

PC12 cell = assay: Protection against neuronal cell death induced by hydrogen peroxide (oxidative stress), Ez-Cytox viability; format: cell-based, Mouse; conditions: 100 nM, 350 μM hydrogen peroxide (about 90% of nerve cells killed without treatment)
Method: PC12 cell line (KCLB 21721, Korea Cell Line Bank, Seoul, Korea) was used to test the effect of P1P and the antibodies on the neuronal cell death caused by hydrogen peroxide and Aβ. The PC12 cells were cultured in RPMI 1640 medium containing 10% fetal bovine serum and 1% penicillin/streptomycin at 37° C. in a 5% CO2 incubator.
After culturing the cells for 24 hours, P1P, cyclic P1P and NAPS-1-P dissolved in DMSO to a concentration of 2 mM were diluted and added to the medium such that the concentrations were 10 nM, 100 nM and 1000 nM. After culturing for 1 hour, 350 μM of H2O2 was added to […] and cultured. Subsequently, in order to measure cell viability, the absorbance was measured at 450 nm using Ez-Cytox (Dogen) after 6 hours, and the efficacy of P1P and derivatives thereof against oxidative stress was measured. The cell death induced by Aβ was initiated by treating 10 μM of Aβ instead of 350 μM of hydrogen peroxide, and the efficacy of P1P and the antibodies against the cell death induced by Aβ was measured using Ez-Cytox after 24 hours.

[3] = 2 weeks after secondary inoculation
[4] = 3 weeks after primary inoculation
[5] = 4 weeks after secondary inoculation

| Compound | IgG1 Average Antibody Titer (Aβ antigen [1]) | IgG2a Average Antibody Titer (Aβ antigen [1]) | IgG2b Average Antibody Titer (Aβ antigen [1]) | IL-4 (IL-4) [pg/mL] | TNF-α (TNF-α) [pg/mL] | Amount of TNF-α (Raw264.7 cells; 10 nM) [pg/mL] | Amount of TNF-α (Raw264.7 cells; 100 nM) [pg/mL] | Amount of TNF-α (Raw264.7 cells; 500 nM) [pg/mL] | Amount of TNF-α (Raw264.7 cells; 1000 nM) [pg/mL] | inhibition at 0.01 µM (Raw264.7 cells; 10 nM) [%] | inhibition at 0.1 µM (Raw264.7 cells; 100 nM) [%] | inhibition at 0.5 µM (Raw264.7 cells; 500 nM) [%] | inhibition at 1 µM (Raw264.7 cells; 1000 nM) [%] | Average Antibody Titer (Aβ antigen [2]; [3]) | Average Antibody Titer (Aβ antigen [2]; [4]) | Average Antibody Titer (Aβ antigen [2]; [5]) | Average Antibody Titer (Aβ antigen [2]; Before inoculation) | neuronal cell death induced by hydrogen peroxide (PC12 cell) | also measured |
| --- | --- | --- | --- | --- | --- | --- | --- | --- | --- | --- | --- | --- | --- | --- | --- | --- | --- | --- | --- |
| CCCCCCCCCCCCC/C=C/[C@@H](O)[C@@H](N)COP(=O)(O)O [S1P, sphingosine-1-phosphate] | 1200 ± 430 | 0 | 0 | 11.84 ± 2.25 | 36.25 ± 20.15 | 15000 | 13880 | 12700 | 116600 | -4.2 | -4.2 | 11.8 | ~19 | 4000 ± 1500 | 140 ± 80 | 4800 ± 2000 | 0 | – | increase in IL-4, statistical significance (IL-4; splenocytes of immunized mice): statistically significant increase; increase in TNF-α, statistical significance (TNF-α; splenocytes of immunized mice): did not show a statistically significant increase; secretion of TNF-α, trend with concentration (Raw264.7 cells): tended to decrease slightly in a concentration-dependent manner |
| CCCCCCCCCCCCCC[C@@H](O)[C@@H](O)[C@H](COP(=O)(O)O)NC(C)=O [NAPS-1-P, N-acetyl phytosphingosine-1-phosphate] | 1700 ± 600 | 0 | 0 | 11.04 ± 0.78 | 40.4 ± 15.52 | 15000 | 15200 | 12200 | 10000 | -4.2 | -4.2 | 15.3 | 30.6 | 5600 ± 2000 | 84 ± 50 | 5600 ± 2000 | – | the nerve cells were not killed | – |
| CCCCCCCCCCCCCC[C@@H](O)[C@H]1OP(=O)(O)OC[C@@H]1N [CP1P, O-cyclic P1P] | 6100 ± 2100 | 0 | 0 | 12.06 ± 1.25 | 42.9 ± 15.52 | 10600 | 7800 | 7500 | 7550 | 26.3 | 26.3 | 47.9 | 47.5 | 11000 ± 2500 | 140 ± 50 | 9000 ± 2000 | 0 | the nerve cells were not killed | – |

From patent US11000587B2, “Use as immune enhancer or pharmaceutical composition for treatment of dementia, comprising phytosphingosine-1-phosphate or derivative thereof” (AXCESO BIOPHARMA CO., LTD., priority 2016, dated 2021)
